Patent US6750253B1, “Aminobenzophenones as inhibitors of il-1β and tnf-α” (Leo Pharmaceutical Products Ltd. A/S, priority 1999, dated 2004)

Experiments:
Type in all cases: cell-based
[1] = tested on: TNF-α; assay: Inhibition of TNF-α secretion in LPS stimulated peripheral blood mononuclear cells; conditions: PBMC; LPS stimulated human peripheral blood mononuclear cells, 18 hours, ELISA; read-out: The median inhibition concentration (IC50, nM) of TNF-α
Protocol: (§1) To study the effect of the compound of the present invention in vitro the inhibition of the IL-1β and TNF-α secretion was measured using the following procedure:
(§2) Cytokine production was measured in the media from lipopolysaccharide (LPS) stimulated peripheral blood mononuclear cells. The mononuclear cells were isolated from human. peripheral blood by Lymphoprep® (Nycomed, Norway) fractionation and suspended in RPMI 1640 (growth medium) with foetal calv serum (FCS, 2%), at a concentration of 5×10^5 cells/ml. The cells were incubated in 24-well tissue culture plates in 1 ml aliquots. Test compounds were dissolved in dimethylsulfoxide (DMSO, 10 mM) and were diluted with the medium. Compounds were added to the cells for 30 minutes, then LPS ([…] final concentration) was added. The plates were incubated for 18 hours, and the concentration of IL-1β and TNF-α in the medium was determined by enzyme-linked immunosorbent assays. The median inhibitory concentrations (IC50) of the compounds were calculated.

[2] = tested on: IL-1β; assay: Inhibition of IL-1β secretion in LPS stimulated peripheral blood mononuclear cells; conditions: PBMC; LPS stimulated human peripheral blood mononuclear cells, 18 hours, ELISA; read-out: The median inhibition concentration (IC50, nM) of IL-1β
Protocol: as §1, §2

[3] = tested on: PMN-superoxide; assay: Inhibition of PMN superoxide secretion (ferricytochrome C reduction); conditions: human PMN granulocytes primed with TNF-α, stimulated with fMLP; read-out: The median inhibition concentration (IC50, nM) of PMN-superoxide
Protocol: The compounds of the present invention also show similar activities in the ability to inhibit PMN (polymorphonuclear) superoxide secretion which is also indicative of potentially useful anti-inflammatory drugs The compounds were tested using the following procedure:
Human polymorphonuclear (PMN) granulocytes were Isolated from human blood by dextran sedimentation, Lymphoprep® fractionation and hypotonic lysis of contaminating erythrocytes.
Superoxide anion generation was measured as the superoxide dismutase inhibitable reduction of ferricytochrome C (Madhu, S. B. et al, Inflammation, 16 241, (1992)). The cells were suspended in Hanks' balanced salt solution, and incubated for 10 minutes at 37° C. with test compounds. The cells were primed by the addition of TNF-α (3 ng/ml final concentration) for 10 minutes, and then ferricytochrome C, (final concentration 750 μg/ml), bovine serum albumin (BSA, final concentration 1 mg/ml) and formyl-methionyl-leucyl-phenylalanine (fMLP, final concentration 10^−7 M) were added for 3 minutes. The cells were chilled on ice, and were spun down. The optical densities in the cell-free supernatant was measured in a spectrophotometer. The median Inhibitory concentration (IC50) of the compounds was calculated.

| Structure (SMILES) | IC50 [1] [nM] | IC50 [2] [nM] | IC50 [3] [nM] |
| --- | --- | --- | --- |
| CCNC(=O)Nc1ccccc1Nc1ccc(C(=O)c2ccccc2C)c(Cl)c1 [Compound 102, 1-Ethyl-3-[2-[3-chloro-4-(2-methylbenzoyl)-phenylamino]phenyl]urea] | 2.2 | 22 | 13 |
| CCNC(=O)Nc1cc(F)ccc1Nc1ccc(C(=O)c2ccccc2C)c(Cl)c1 [Compound 114, 1-Ethyl-3-[2-[3-chloro-4-(2-methylbenzoyl)-phenylamino]-5-fluoro-phenyl]urea] | 3.2 | 7.9 | 4 |
| Cc1ccccc1C(=O)c1ccc(Nc2ccccc2NC(=O)NC2CCCCC2)cc1Cl [Compound 101, 1-Cyclohexyl-3-[2-[3-chloro-4-(2-methylbenzoyl)-phenylamino]phenyl]urea] | 5 | 13 | 4 |
| CCNC(=O)Nc1ccccc1Nc1ccc(C(=O)c2ccccc2)cc1 [ref. b), 1-Ethyl-3-[2-(4-benzoyl-phenylamino)phenyl]urea, reference compound] | 631 | > 1000 | 316 |
